Test results taken from the supplement of paper PMC10307832.

Columns and labels:
Assay in all cases: relative viability (nuclei count vs DMSO), 5 days (fraction); higher = more cells survive
MK-8033 + Foretinib = compound: Cn1cc(-c2cnc3ccc4ccc(CS(=O)(=O)NCc5ccccn5)cc4c(=O)c3c2)cn1 [MK-8033] + COc1cc2c(Oc3ccc(NC(=O)C4(C(=O)Nc5ccc(F)cc5)CC4)cc3F)ccnc2cc1OCCCN1CCOCC1 [Foretinib] (partner 0.25 µM)
Outline: (§1)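 Cells from lung cancer lines were seeded into 1536-well plates and, one day later, dosed by pin tool. Treatments were either a single drug or a fixed dose of an anchor drug with five library-drug doses (not always all listed) in √10 steps. After 5 days, nuclei were stained in a one-step fixation (final 0.05% Triton X-100, 1% formaldehyde, 1 ug/ml Hoechst) and counted on 4× images, and relative viability is the treated-to-vehicle nuclei ratio, as the median of duplicate plates.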

MK-8033 + OSI-027 = compound: Cn1cc(-c2cnc3ccc4ccc(CS(=O)(=O)NCc5ccccn5)cc4c(=O)c3c2)cn1 [MK-8033] + COc1cccc2cc(-c3nc([C@H]4CC[C@H](C(=O)O)CC4)n4ncnc(N)c34)[nH]c12 [OSI-027] (partner 0.5 µM)
Outline: as §1

MK-8033 + Crizotinib = compound: Cn1cc(-c2cnc3ccc4ccc(CS(=O)(=O)NCc5ccccn5)cc4c(=O)c3c2)cn1 [MK-8033] + C[C@@H](Oc1cc(-c2cnn(C3CCNCC3)c2)cnc1N)c1c(Cl)ccc(F)c1Cl [Crizotinib] (partner 1 µM)
Outline: as §1

MK-8033 + Alpelisib = compound: Cn1cc(-c2cnc3ccc4ccc(CS(=O)(=O)NCc5ccccn5)cc4c(=O)c3c2)cn1 [MK-8033] + Cc1nc(NC(=O)N2CCC[C@H]2C(N)=O)sc1-c1ccnc(C(C)(C)C(F)(F)F)c1 [Alpelisib] (partner 2 µM)
Outline: as §1

| Cell Line | relative viability (MK-8033 + Foretinib; first compound 0.02 µM) | relative viability (MK-8033 + Foretinib; first compound 0.06325 µM) | relative viability (MK-8033 + Foretinib; first compound 0.2 µM) | relative viability (MK-8033 + Foretinib; first compound 0.6325 µM) | relative viability (MK-8033 + Foretinib; first compound 2 µM) | relative viability (MK-8033 + OSI-027; first compound 0.02 µM) | relative viability (MK-8033 + OSI-027; first compound 0.06325 µM) | relative viability (MK-8033 + OSI-027; first compound 0.2 µM) | relative viability (MK-8033 + OSI-027; first compound 0.6325 µM) | relative viability (MK-8033 + OSI-027; first compound 2 µM) | relative viability (MK-8033 + Crizotinib; first compound 0.02 µM) | relative viability (MK-8033 + Crizotinib; first compound 0.06325 µM) | relative viability (MK-8033 + Crizotinib; first compound 0.2 µM) | relative viability (MK-8033 + Crizotinib; first compound 0.6325 µM) | relative viability (MK-8033 + Crizotinib; first compound 2 µM) | relative viability (MK-8033 + Alpelisib; first compound 0.02 µM) | relative viability (MK-8033 + Alpelisib; first compound 0.06325 µM) | relative viability (MK-8033 + Alpelisib; first compound 0.2 µM) | relative viability (MK-8033 + Alpelisib; first compound 0.6325 µM) | relative viability (MK-8033 + Alpelisib; first compound 2 µM) |
| --- | --- | --- | --- | --- | --- | --- | --- | --- | --- | --- | --- | --- | --- | --- | --- | --- | --- | --- | --- | --- |
| NCI-H2023 | 0.822 | 0.786 | 0.701 | 0.948 | 0.771 | 0.432 | 0.288 | 0.335 | 0.319 | 0.223 | 0.674 | 0.559 | 0.554 | 0.554 | 0.586 | 0.655 | 0.516 | 0.5 | 0.474 | 0.521 |
| NCI-H2085 | 0.914 | 0.75 | 1.23 | 0.919 | 0.951 | 0.762 | 0.728 | 0.653 | 0.643 | 0.7 | 0.873 | 0.804 | 0.867 | 0.801 | 0.977 | 0.873 | 0.936 | 0.925 | 0.823 | 0.971 |
| NCI-H2087 | 1.03 | 1.11 | 0.889 | 1.16 | 0.957 | 0.546 | 0.519 | 0.443 | 0.642 | 0.617 | 0.957 | 0.746 | 0.883 | 0.989 | 0.836 | 1.15 | 1.05 | 1.05 | 1.05 | 1 |
| NCI-H2126 | 1.13 | 0.998 | 1.16 | 1.18 | 1.15 | 0.752 | 0.666 | 0.764 | 0.595 | 0.808 | 1.04 | 0.927 | 0.973 | 0.976 | 0.951 | 0.749 | 0.731 | 0.763 | 0.772 | 0.702 |
| NCI-H2170 | 1.03 | 0.966 | 0.959 | 1.06 | 1.09 | 0.682 | 0.639 | 0.7 | 0.732 | 0.707 | 1.08 | 1.18 | 1.05 | 1.18 | 1.18 | 0.652 | 0.758 | 0.691 | 0.773 | 0.772 |
| NCI-H2228 | 0.96 | 0.806 | 0.673 | 0.721 | 0.749 | 0.692 | 0.562 | 0.576 | 0.559 | 0.552 | 0.373 | 0.372 | 0.508 | 0.387 | 0.362 | 0.815 | 0.551 | 0.629 | 0.768 | 0.841 |
| NCI-H2347 | 1.21 | 1.01 | 0.805 | 0.839 | 0.939 | 0.395 | 0.399 | 0.406 | 0.454 | 0.422 | 0.752 | 0.667 | 0.665 | 0.618 | 0.823 | 1.05 | 0.991 | 1.02 | 1.03 | 0.975 |
| NCI-H2405 | 1.01 | 1.02 | 0.988 | 1.09 | 1.04 | 0.595 | 0.538 | 0.594 | 0.604 | 0.604 | 0.809 | 0.783 | 0.842 | 0.871 | 0.811 | 0.732 | 0.731 | 0.699 | 0.765 | 0.736 |
| NCI-H3122 | 0.962 | 0.958 | 0.93 | 0.908 | 0.974 | 1.05 | 0.957 | 0.926 | 0.991 | 0.916 | 0.335 | 0.249 | 0.311 | 0.272 | 0.286 | 0.817 | 0.755 | 0.777 | 0.853 | 0.859 |
| PC-3 [JPC-3] | 0.977 | 0.952 | 0.994 | 1 | 1.03 | 0.78 | 0.647 | 0.646 | 0.776 | 0.692 | 0.963 | – | 0.902 | 0.981 | 0.936 | 0.959 | – | 0.998 | 1 | 0.956 |
| PC-14 | 0.918 | 0.859 | 0.905 | 0.985 | 0.869 | 0.835 | 0.742 | 0.828 | 0.773 | 0.73 | 0.932 | 0.81 | 0.875 | 0.889 | 0.817 | 0.888 | 0.878 | 0.87 | 0.898 | 0.804 |
| RERF-LC-KJ | 0.869 | 0.854 | 0.829 | 0.928 | 0.875 | 0.554 | 0.535 | 0.531 | 0.521 | 0.509 | 0.867 | 0.849 | 0.769 | 0.825 | 0.79 | 0.735 | 0.76 | 0.698 | 0.777 | 0.774 |
| SK-LU-1 | 0.843 | 0.813 | 0.837 | 0.849 | 0.815 | 0.347 | 0.352 | 0.315 | 0.4 | 0.371 | 0.873 | 0.874 | 0.8 | 0.835 | 1.02 | 1 | 1.04 | 0.806 | 1.02 | 0.988 |
| SK-MES-1 | 0.899 | 0.86 | 0.858 | 0.805 | 0.851 | 0.621 | 0.592 | 0.566 | 0.605 | 0.535 | 0.96 | 0.959 | 0.919 | 1.01 | 0.992 | 0.927 | 0.811 | 0.89 | 0.936 | 0.96 |
| SW 1573 | 0.93 | 0.759 | 0.841 | 0.918 | 0.995 | 0.818 | 0.529 | 0.544 | 0.603 | 0.513 | 0.798 | 0.743 | 0.752 | 0.416 | 0.695 | 0.817 | – | 0.698 | 0.687 | 0.719 |
